The values below come from patent US20240390256A1, “A DEODORANT COMPOSITION” (priority 2021, published 2024).

The test relates to S. hominis ATCC 27844. Kind of test: Malodour assay using lead acetate method (H2S formation by S. hominis, 96-well plate). Type of test: cell-based. The note with it: for (%) Malodour generated: bacterial control = 100; for % malodour generation as compared to pectin: malodour assay, carbohydrates at 2 wt. %. The protocol:
The test organisms was grown on TSA (Tryptic Soya Agar) plates overnight (22±2 hr). The organism was not more than 3 passages removed from the original source. The cell number was adjusted by re-suspending it in a suitable amount of physiological saline sufficient to achieve the required cell number based on optical density of the cells. The optical density (OD at 620 nm) of the cells were standardized to the cell number for the test organism using a spectrophotometer. A minimum final suspension of 1.0×10^8 CFU/mL was achieved by adjusting the OD to 0.2 in saline for the malodour assay. A 1% lead acetate solution was made in distilled water. Whatmann filter paper (cut in the size that could be placed over the wells of a well plate) was dipped in the lead acetate solution. The excess solution was drained and allowed to dry in Laminar Air Flow for 30 minutes. Stock solutions of the actives were prepared for performing the assay. A 0.5% citrus pectin was prepared by weighing 0.05 g of pectin in 10 ml sterile distilled water under magnetic stirrer for 30 min. A 1:10 dilution of this stock was prepared in sterile distilled water to achieve a final stock of 0.05% citrus pectin to perform the assay. A 1% stock of niacinamide was prepared by weighing 0.1 g in 10 ml sterile distilled water. The malodour assay was adapted from the method of Moore et al, 2003 and modified into a 96 well plate format. 100 μl Tryptic Soy Broth (TSB) with 0.1% L-cysteine-HCl was added into the wells of the 96-well plate. 20 μl of 0.2 OD culture of S. hominis was then added into the wells. The actives were added from the stock solutions at required concentrations and made up the volume to 200 μl with addition of sterile distilled water. The assay was done in triplicates. The lead acetate paper was placed over the wells and the lid of the 96-well plate was closed and incubated at 37° C. incubator overnight. After the incubation time, the dark coloration of the lead acetate paper was observed. Visible blackening of lead acetate in the area over the well indicated the presence of H2S. The intensity of the colour was recorded using a reflectometer as L*a*b* values. The difference between the initial and final L*a*b* values ΔE, was used to quantify malodour formation. The percentage malodour was calculated from ΔE measured using the above assay for the various actives or combinations.

The mark [1] stands for this setting: Table 1, active wt % as given per example, S. hominis in TSB with 0.1% L-cysteine-HCl, 37° C. overnight, calculated from ΔE.
Setting [2] is: Table 2, comparative carbohydrates at 2 wt. %.

Molecules are shown by their SMILES.

In the case of `NC(=O)c1cccnc1` [C, Niacinamide], under setting [1], the “(%) Malodour generated” value is listed as 89%. Consider `NC(=O)c1cccnc1` [D, Niacinamide], for which the “(%) Malodour generated” value under setting [1] was 71%. As for `OC[C@H]1O[C@@](CO)(O[C@H]2O[C@H](CO)[C@@H](O)[C@H](O)[C@H]2O)[C@@H](O)[C@@H]1O` [F, Sucrose], the “(%) Malodour generated” value under setting [2] is given as 100%. In addition, the “% malodour generation as compared to pectin” value (Table 2) is given as “higher”.

On to `O=C[C@H](O)[C@@H](O)[C@@H](O)[C@H](O)CO` [J, Galactose], for which the “(%) Malodour generated” value under setting [2] is reported as 90%. The “% malodour generation as compared to pectin” value (Table 2) is listed as “higher”.
